Results as given in patent publication US20190225650A1, “PEPTIDOMIMETIC MACROCYCLES AND USE THEREOF IN REGULATING HIF1ALPHA” (AILERON THERAPEUTICS, INC., priority 2013, published 2019).
Bridge positions count the residues as written; N and C are the ends. Square brackets hold non-standard residues; d marks the D form. Peptide text beside a SMILES is read from it. S5 = C=CCCC[C@](C)(N)C(=O)O; Nle = CCCC[C@H](N)C(=O)O

Legend:
[1] = target: T1, flag-tagged HIF1α (AA 786-826) / His6-tagged p300 (AA 323-423) complex (Homo sapiens, UniProt Q09472); assay: HIF1α p300 displacement assay (TR FRET, +CHAPS); type: binding; conditions: read-out: IC50 (nM) (HIF1α_p300 Displacement + CHAPS)
T1 construct: His6-tagged p300 (AA 323-423); made in house; host or cells: E. coli (pETDuet vector)
T1 sequence (Q09472 323-423, one chain of several): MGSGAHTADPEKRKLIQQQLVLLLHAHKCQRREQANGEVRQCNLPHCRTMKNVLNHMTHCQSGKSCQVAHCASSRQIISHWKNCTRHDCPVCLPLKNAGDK
How it was run: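 The co-expressed flag-HIF1α (786-826)/His6-p300 (323-423) complex, purified from E. coli with 0.1 mM ZnSO4, was used at 300 nM final with competitor peptides for 1 h at room temperature. Buffer was 150 mM NaCl, 20 mM HEPES pH 7.4, 7.5 mM CHAPS and 1 mM DTT. Anti-Flag-K (0.5 μM) and anti-His-D2 (4 nM) were then added for 2 h, and IC50s were fitted from the TR-FRET ratio.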

HRE-bla ME-180 cells [2] = assay: Cell proliferation assay (viability, MTT, 1% FBS); type: cell-based, human
Description: The human cervical cell line HRE-Bla ME-180 was obtained from Invitrogen. 2×10^4 ME-180 cells were plated in 96-well plates (costar) in Opti-MEM plus 1% FBS (Invitrogen). After 4 hr, cells were pretreated with chetomin, peptide or 0.5% DMSO (final concentration in media) vehicle control for 16 hr under normoxia (21% O2); then incubation continued under normoxia or hypoxia (1% O2) using a hypoxia incubator (Thermo Forma model). Viable cell numbers were quantified using CellTiter 96 Non-Radioactive Cell Proliferation kit (Promega, G4100). The results are presented in the column “Viability 1% FBS AVG (MTT V3-24 hr Normoxia) (μM)” of Table 6.

HRE-bla ME-180 cells [3] = assay: Reporter gene assay (HRE-bla ME-180 HIF reporter, GeneBLAzer); type: cell-based, human; conditions: for EC50: 24 hour normoxia
How it was run: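 A FRET β-lactamase readout of HIF transcription was used. After compound treatment in 0.3% DMSO/media under normoxic conditions, 20 μl of 6× LiveBLAzer-FRET B/G (CCF4-AM) substrate was added. Plates sat 3 hr at room temperature in the dark and were read at 409 Ex/460Em and 409Ex/530Em on a Synergy 2. Inhibition was compared against DMSO vehicle controls, with chetomin as positive control.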

Row | SMILES | IC50 [1] [nM] | Viability 1% FBS AVG (MTT V3-24 hr Normoxia) (μM) (HRE-bla ME-180 cells [2]) | 18 h Avg % max inhibition at top conc (HIF Rptr-24 hrs normoxia) (μM) (HRE-bla ME-180 cells [3]) | EC50 (HRE-bla ME-180 cells [3]) [µM]
1 | CCCC[C@@H]1NC(=O)[C@H](CC(C)C)NC(=O)[C@H](C(C)C)NC(=O)[C@@](C)(NC(=O)[C@H](CCC(=O)O)NC(=O)[C@H](CC(=O)O)NC(=O)[C@@H](NC(=O)[C@H](Cc2ccccc2)NC(C)=O)[C@@H](C)CC)CCCC=CCCC[C@@](C)(C(=O)N[C@@H](CC(C)C)C(=O)N[C@H](C(=O)N[C@H](C(=O)N[C@@H](CCC(=O)O)C(=O)N[C@@H](C)C(=O)N[C@@H](C)C(=O)N[C@@H](CC(C)C)C(N)=O)[C@@H](C)CC)C(C)C)NC1=O [SP-145] (Ac-FIDE[S5]VL[Nle][S5]LVIEAAL-NH2; staple 5-9) | 200 to 400 | ++++ (≥30: ++++) |  | 
2 | CCCC[C@H](NC(=O)[C@H](CCC(=O)O)NC(=O)[C@@H](NC(=O)[C@@H](NC(=O)[C@H](CC(C)C)NC(=O)[C@]1(C)CCCC=CCCC[C@](C)(NC(=O)[C@H](CCC(=O)O)NC(=O)[C@H](CC(=O)O)NC(=O)[C@@H](NC(=O)[C@H](Cc2ccccc2)NC(C)=O)[C@@H](C)CC)C(=O)N[C@@H](C(C)C)C(=O)N[C@@H](CC(C)C)C(=O)N[C@@H](CCSC)C(=O)N1)C(C)C)[C@@H](C)CC)C(=O)N[C@@H](C)C(=O)N[C@@H](CC(C)C)C(=O)N[C@@H](CC(=O)O)C(=O)N[C@@H](CCCNC(=N)N)C(=O)N[C@H](C(N)=O)[C@@H](C)CC [SP-119] (Ac-FIDE[S5]VLM[S5]LVIE[Nle]ALDRI-NH2; staple 5-9) |  | ++++ (≥30: ++++) | +++ (≤25 but <50: +++) | > 30
3 | CCCC[C@H](NC(=O)[C@H](CCC(=O)O)NC(=O)[C@@H](NC(=O)[C@@H](NC(=O)[C@H](CC(C)C)NC(=O)[C@]1(C)CCCC=CCCC[C@](C)(NC(=O)[C@H](CCC(=O)O)NC(=O)[C@H](CC(=O)O)NC(=O)[C@@H](NC(=O)[C@H](CC(N)=O)NC(=O)[C@@H](NC(=O)[C@H](CCC(N)=O)NC(=O)[C@]2(C)CCCC=CCCC[C@](C)(NC(=O)[C@H](CC(C)C)NC(=O)[C@H](CCC(=O)O)NC(=O)[C@H](CCC(=O)O)NC(=O)CNC(=O)[C@H](CCC(N)=O)NC(=O)[C@H](CC(C)C)NC(=O)[C@H](CC(C)C)NC(C)=O)C(=O)N[C@@H](CCCNC(=N)N)C(=O)N[C@@H](C)C(=O)N[C@@H](CC(C)C)C(=O)N2)C(C)C)[C@@H](C)CC)C(=O)N[C@@H](C(C)C)C(=O)N[C@@H](CC(C)C)C(=O)N[C@@H](CCCC)C(=O)N1)C(C)C)[C@@H](C)CC)C(=O)NCC(N)=O [SP-327] (Ac-LLQGEEL[S5]RAL[S5]QVNIDE[S5]VL[Nle][S5]LVIE[Nle]G-NH2; staple 8-12, 19-23) |  | ++++ (≥30: ++++) | + (<10: +) | > 30
4 | CCCC[C@H](NC(=O)[C@H](Cc1ccccc1)NC(=O)[C@@H](NC(=O)[C@H](C)NC(=O)[C@H](CCC(N)=O)NC(=O)[C@H](CC(=O)O)NC(=O)[C@@H](NC(=O)[C@H](Cc1ccccc1)NC(C)=O)[C@@H](C)CC)C(C)C)C(=O)N[C@@]1(C)CCCC=CCCC[C@@](C)(C(=O)N[C@@H](CCCC)C(=O)N[C@@H](C)C(=O)N[C@@H](CC(C)C)C(=O)N[C@@H](CC(C)C)C(N)=O)NC(=O)[C@H]([C@@H](C)CC)NC(=O)[C@H](C(C)C)NC(=O)[C@H](CC(C)C)NC1=O [SP-250] (Ac-FIDQAVF[Nle][S5]LVI[S5][Nle]ALL-NH2; staple 9-13) |  | ++++ (≥30: ++++) | + (<10: +) | > 30
